Experimental data as given in PubChem BioAssay (NCI).
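The compound was tested at five concentrations on cells cultured in 96-well plates, with a 48-hour exposure period. The concentration for full growth arrest is given as TGI.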

These compounds were tested on IGROV1 ovarian (assay: NCI tumour cell line growth inhibition, 48 h).
Work on O=c1sc2ccccc2n1CC1CS1 (stereo unspecified) yielded a TGI of over 100 µM.
For Cc1n(Cc2ccccc2)c2c([n+]1C)C(=O)c1ccccc1C2=O, the TGI was 0.127 µM.
O=C1c2cccc3c2C(=O)c2c(cccc21)OCCOCCOCCOCCO3 gave a TGI of over 100 µM.
With C=CCc1c(O)c2c(c3oc(=O)cc(C)c13)CC(C)O2 (stereo unspecified) the TGI was over 100 µM.
CN(C)c1ccc(/C=c2/c3ccccc3n3c2c2c([n+]3C)CCCC2)cc1 showed a TGI of 1.82 µM.
With CCOc1ncn(-c2ccc(NC(=S)Nc3ncccn3)cc2)n1 the TGI was over 100 µM.
CC1(C)OC(C(=O)Nc2cc3c4ccccc4ccc3c3ccccc23)C(C(=O)N2CCCCC2)O1 (stereo unspecified) was tested, and the TGI was over 100 µM.
In the case of COc1cc2c(cc1OC)C(CC1=C(c3ccccc3)CN3CCc4cc(OC)c(OC)cc4C3C1)NCC2 (stereo unspecified), the TGI is reported as 32.8 µM.
CC(=O)Nc1ccc(N=Nc2c(O)c(S(=O)(=O)O)cc3cc(S(=O)(=O)O)ccc23)cc1 was tested, and the TGI was over 100 µM.
With Nc1c(C(=O)O)nnc2ccc(Cl)cc12 the TGI was over 100 µM.
Compound O=C(O)C(O)C(O)C(O)C(O)c1nc2ccccc2s1 (stereo unspecified) has a TGI of 24.7 µM.

The compounds below were run on K-562 leukemia (assay: NCI tumour cell line growth inhibition, 48 h).
CCCC(=O)OCC1OC(n2ccc(N)nc2=O)C(OC(=O)CCC)C1OC(=O)CCC (stereo unspecified) gave a TGI of over 100 µM.
In the case of O=S(=O)(O)CCCc1cccc2ccccc12, the TGI is reported as over 100 µM.
NC(CCCCCP(=O)(c1ccccc1)C1C=CC=CC1)C(=O)O (stereo unspecified) was tested, and the TGI was over 100 µM.
In the case of COc1ccc(/C=C2\CCNC2=O)cc1, the TGI is reported as over 100 µM.
Work on CC(C)Cc1ccc(C(C)C(=O)N2CCN(/C=C/c3ccccc3)CC2)cc1 (stereo unspecified) yielded a TGI of 29.3 µM.
In the case of CO/N=C(\C)c1ccc(Nc2nc3ccccc3c3occc23)cc1, the TGI is reported as 50.7 µM.
Compound O=c1cc[nH]c(=O)[nH]1 has a TGI of over 1000 µM.
With O=P(O)(O)CCP(=O)(O)O the TGI was over 100 µM.
Work on O=c1sc2ccccc2n1CC1CS1 (stereo unspecified) yielded a TGI of over 100 µM.
For Cc1n(Cc2ccccc2)c2c([n+]1C)C(=O)c1ccccc1C2=O, the TGI was 1.66 µM.
In the case of O=C1c2cccc3c2C(=O)c2c(cccc21)OCCOCCOCCOCCO3, the TGI is reported as over 100 µM.
For C=CCc1c(O)c2c(c3oc(=O)cc(C)c13)CC(C)O2 (stereo unspecified), the TGI was over 100 µM.
Work on CN(C)c1ccc(/C=c2/c3ccccc3n3c2c2c([n+]3C)CCCC2)cc1 yielded a TGI of 2.85 µM.
CCOc1ncn(-c2ccc(NC(=S)Nc3ncccn3)cc2)n1 was tested, and the TGI was over 100 µM.
CC1(C)OC(C(=O)Nc2cc3c4ccccc4ccc3c3ccccc23)C(C(=O)N2CCCCC2)O1 (stereo unspecified) showed a TGI of over 100 µM.
With CCN(CC)CCNc1ccc2nnn3c4ccc(OCCN(CC)CC)cc4c(=O)c1c23 the TGI was over 100 µM.
COc1cc2c(cc1OC)C(CC1=C(c3ccccc3)CN3CCc4cc(OC)c(OC)cc4C3C1)NCC2 (stereo unspecified) showed a TGI of 30.1 µM.
CC(=O)Nc1ccc(N=Nc2c(O)c(S(=O)(=O)O)cc3cc(S(=O)(=O)O)ccc23)cc1 gave a TGI of over 100 µM.
Compound Nc1c(C(=O)O)nnc2ccc(Cl)cc12 has a TGI of over 100 µM.

The compounds below were run on NCI-H226 lung (assay: NCI tumour cell line growth inhibition, 48 h).
With CCCC(=O)OCC1OC(n2ccc(N)nc2=O)C(OC(=O)CCC)C1OC(=O)CCC (stereo unspecified) the TGI was over 100 µM.
O=S(=O)(O)CCCc1cccc2ccccc12 gave a TGI of over 100 µM.
With CC(=O)OC1/C=C(\C)C(OC(C)=O)C/C=C(/C)CCC2C(/C=C/C1=O)C2(C)C (stereo unspecified) the TGI was over 100 µM.
COc1ccc(/C=C2\CCNC2=O)cc1 showed a TGI of over 100 µM.
With CC(C)Cc1ccc(C(C)C(=O)N2CCN(/C=C/c3ccccc3)CC2)cc1 (stereo unspecified) the TGI was 18.1 µM.
In the case of CO/N=C(\C)c1ccc(Nc2nc3ccccc3c3occc23)cc1, the TGI is reported as 24 µM.
For O=c1cc[nH]c(=O)[nH]1, the TGI was 990 µM.
O=c1sc2ccccc2n1CC1CS1 (stereo unspecified) gave a TGI of over 100 µM.
Cc1n(Cc2ccccc2)c2c([n+]1C)C(=O)c1ccccc1C2=O showed a TGI of 0.514 µM.
For O=C1c2cccc3c2C(=O)c2c(cccc21)OCCOCCOCCOCCO3, the TGI was over 100 µM.
With C=CCc1c(O)c2c(c3oc(=O)cc(C)c13)CC(C)O2 (stereo unspecified) the TGI was over 100 µM.
For CN(C)c1ccc(/C=c2/c3ccccc3n3c2c2c([n+]3C)CCCC2)cc1, the TGI was 2.43 µM.
In the case of CC1(C)OC(C(=O)Nc2cc3c4ccccc4ccc3c3ccccc23)C(C(=O)N2CCCCC2)O1 (stereo unspecified), the TGI is reported as over 100 µM.
Work on COc1cc2c(cc1OC)C(CC1=C(c3ccccc3)CN3CCc4cc(OC)c(OC)cc4C3C1)NCC2 (stereo unspecified) yielded a TGI of 37.2 µM.
CC(=O)Nc1ccc(N=Nc2c(O)c(S(=O)(=O)O)cc3cc(S(=O)(=O)O)ccc23)cc1 gave a TGI of over 100 µM.
For Nc1c(C(=O)O)nnc2ccc(Cl)cc12, the TGI was over 100 µM.
